Laboratory results taken from patent publication US6563024B1, “Process for transformation of mature trees of Eucalyptus plants” (OJI Paper Co., Ltd., priority 1999, dated 2003).
“And” between values parts separate entries of the source, which are not always exact repeats. Equal values may be shown once.

Tests used:
[1] = tested on: precocious branches of Eucalyptus camaldulensis; test: Transgenic calli formation with varied NAA concentration in infection medium and sterilization medium; format: cell-based; conditions: 4-PU 0.2 mg/l
Method: After cutting the precocious branches subjected to the infection induction treatment to segments of 2 to 10 mm length with a knife, the segments were immersed in the culture medium of Agrobacterium tumefaciens strain EHA101/pIG121-Hm prepared according to the method described above. After wiping off the culture medium adhered to the segments of the precocious branches with filter paper, the sections of the precocious branches were embedded in an infection medium containing 2 mg/l NAA, 0.2 mg/l 4-PU, 1 mM galactose, 10 μM acetosyringone, 3% sucrose and 0.02% gellan gum in B5 basal medium, followed by stationary-culturing for 2 days at a temperature of 26° C. and under dark conditions to infect the precocious branches with Agrobacterium tumefaciens. The explant segments treated as described above were transplanted to a sterilization medium containing 2 mg/l NAA, 0.2 mg/l 4-PU or 4CPPU, 3% sucrose, and 500 mg/l of carbenicillin as antibiotic for sterilizing Agrobacterium attached to the explant segments, and were vertical-rotary-cultured for 7 - days at a temperature of 26° C. and rotating speed of 2 rpm under dark conditions to sterilize the Agrobacterium tumefaciens. With the exception of inducing precocious branches from a different plant of Eucalyptus camaldulensis, and the NAA concentrations used in the infection medium and sterilization medium, the precocious branches were infected with agrobacterium tumefaciens strain EHA101/pIG121-Hm in the same manner as described in Example 1 to produce transgenic calli.

[2] = tested on: precocious branches of Eucalyptus camaldulensis; test: Transgenic calli formation after infection induction treatment of precocious branches with NAA, then Agrobacterium tumefaciens EHA101/pIG121-Hm infection; format: cell-based; conditions: 30 days
Method: Culturing was performed for 7 to 14 days at a temperature of 26 to 28° C. under dark conditions. After cutting the precocious branches subjected to the infection induction treatment to segments of 2 to 10 mm length with a knife, the segments were immersed in the culture medium of Agrobacterium tumefaciens strain EHA101/pIG121-Hm prepared according to the method described above. After wiping off the culture medium adhered to the segments of the precocious branches with filter paper, the sections of the precocious branches were embedded in an infection medium containing 2 mg/l NAA, 0.2 mg/l 4-PU, 1 mM galactose, 10 μM acetosyringone, 3% sucrose and 0.02% gellan gum in B5 basal medium, followed by stationary-culturing for 2 days at a temperature of 26° C. and under dark conditions to infect the precocious branches with Agrobacterium tumefaciens. With the exception of inducing precocious branches from three Eucalyptus camaldulensis plants, and performing infection induction treatment with the concentration of NAA in the precocious branch infection induction medium at 0, 0.02, 0.2 or 2.0 mg/l, the precocious branches were infected with Agrobacterium tumefaciens strain EHA101/pIG121-Hm in the same manner as described in Example 1, and the number of transgenic calli that express intron GUS gene was investigated 30 days after the start of the infection induction treatment. For plant 1, the case of testing precocious branches of the untreated group on which infection treatment was not performed, transformation efficiency of 23.1% was obtained. […] In addition, in the untreated group of plant 2 as well in which infection was difficult, transgenic calli were observed following infection induction by NAA. One the basis of these findings, infection induction treatment of precocious branches was clearly shown to be effective in improving transformation efficiency.

## O=C(O)Cc1cccc2ccccc12 [NAA, naphthaleneacetic acid]
[1]; infection medium NAA 0.02 mg/l, sterilization medium NAA 0.02 mg/l
  Transformation efficiency: 14%
[1]; infection medium NAA 0.02 mg/l, sterilization medium NAA 2 mg/l
  Transformation efficiency: 4%
[1]; infection medium NAA 2 mg/l, sterilization medium NAA 0.02 mg/l
  Transformation efficiency: 11%
[1]; infection medium NAA 2 mg/l, sterilization medium NAA 2 mg/l
  Transformation efficiency: 42%
[2]; plant No. 1, NAA 0.02 mg/l in infection induction medium
  Transformation efficiency = No. of transgenic calli/No. of tested segments × 100: 72.9% and 73%
[2]; plant No. 1, NAA 0.2 mg/l in infection induction medium
  Transformation efficiency = No. of transgenic calli/No. of tested segments × 100: 64%
[2]; plant No. 1, NAA 2.0 mg/l in infection induction medium
  Transformation efficiency = No. of transgenic calli/No. of tested segments × 100: 49%
[2]; plant No. 2, NAA 0.02 mg/l in infection induction medium
  Transformation efficiency = No. of transgenic calli/No. of tested segments × 100: 8%
[2]; plant No. 2, NAA 0.2 mg/l in infection induction medium
  Transformation efficiency = No. of transgenic calli/No. of tested segments × 100: 31%
[2]; plant No. 2, NAA 2.0 mg/l in infection induction medium
  Transformation efficiency = No. of transgenic calli/No. of tested segments × 100: 19%
[2]; plant No. 3, NAA 0.02 mg/l in infection induction medium
  Transformation efficiency = No. of transgenic calli/No. of tested segments × 100: 69%
[2]; plant No. 3, NAA 0.2 mg/l in infection induction medium
  Transformation efficiency = No. of transgenic calli/No. of tested segments × 100: 38%
[2]; plant No. 3, NAA 2.0 mg/l in infection induction medium
  Transformation efficiency = No. of transgenic calli/No. of tested segments × 100: 59%
